Values joined by “and” are separate entries in the source; they are usually repeats but may differ in a detail not shown here. Equal entries are not always repeated. Toxic doses and inconclusive results are not listed.
Test system: P388 leukemia ip, CD2F1 mice, survival T/C
Experiment: NCI In Vivo Anticancer Drug Screen. Data for tumor model P388 Leukemia (intraperitoneal) in CD2F1 (CDF1) mice
Settings: endpoint: median survival time, higher = longer survival
Method in brief: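 Mice carrying the transplanted tumor received test compound or vehicle. Survival was recorded in each group, and the value is the treated-group measurement divided by that of the vehicle-treated control group.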

[1] = dose: 50.0 mg/kg/injection, schedule: Q01DX009 (ip), vehicle: saline with Tween-80
[2] = dose: 50.0 mg/kg/injection, schedule: Q01DX005 (ip), vehicle: saline with Tween-80
[3] = dose: 100.0 mg/kg/injection, schedule: Q01DX005 (ip), vehicle: saline with Tween-80
[4] = dose: 200.0 mg/kg/injection, schedule: Q01DX005 (ip), vehicle: saline with Tween-80
[5] = dose: 60.0 mg/kg/injection, schedule: Q01DX005 (ip), vehicle: Klucel (hydroxypropylcellulose) (HPC)
[6] = dose: 120.0 mg/kg/injection, schedule: Q01DX005 (ip), vehicle: Klucel (hydroxypropylcellulose) (HPC)
[7] = dose: 60.0 mg/kg/injection, schedule: Q01DX005 (ip), vehicle: saline with Tween-80
[8] = dose: 120.0 mg/kg/injection, schedule: Q01DX005 (ip), vehicle: saline with Tween-80
[9] = dose: 240.0 mg/kg/injection, schedule: Q01DX005 (ip), vehicle: saline with Tween-80

CC(NC(=O)OCc1ccccc1)C(=O)Oc1ccccc1[N+](=O)[O-] (stereo unspecified)
T/C [1]: 96 % of control | T/C (dose: 100.0 mg/kg/injection, schedule: Q01DX009 (ip), vehicle: saline with Tween-80): 103 % of control | T/C (dose: 200.0 mg/kg/injection, schedule: Q01DX009 (ip), vehicle: saline with Tween-80): 105 % of control

O=C1CN(c2cccc(Cl)c2)C(=O)CN1/N=C/c1ccc(O)c(O)c1
T/C [2]: 88 % of control | T/C [3]: 92 % of control | T/C [4]: 100 % of control

ClCCN(CCCl)c1ccc(N=Nc2cccc(Cl)c2Cl)cc1
T/C (dose: 150.0 mg/kg/injection, schedule: Q04DX003 (ip), vehicle: Klucel (hydroxypropylcellulose) (HPC)): 99 % of control | T/C (dose: 300.0 mg/kg/injection, schedule: Q04DX003 (ip), vehicle: Klucel (hydroxypropylcellulose) (HPC)): 95 % of control

C=C1C[C@](OC)([C@H](O)C(=O)N[C@@H](OC)[C@@H]2C[C@@H](O)C(C)(C)[C@@H](C[C@@H](COC)OC)O2)O[C@H](C)[C@@H]1C
T/C (dose: 6.2 micrograms/kg/injection, schedule: Q01DX005 (ip), vehicle: Klucel (hydroxypropylcellulose) (HPC)): 153 % of control | T/C (dose: 12.5 micrograms/kg/injection, schedule: Q01DX005 (ip), vehicle: Klucel (hydroxypropylcellulose) (HPC)): 152 % of control | T/C (dose: 25.0 micrograms/kg/injection, schedule: Q01DX005 (ip), vehicle: Klucel (hydroxypropylcellulose) (HPC)): 161 % of control and 162 % of control | T/C (dose: 50.0 micrograms/kg/injection, schedule: Q01DX005 (ip), vehicle: Klucel (hydroxypropylcellulose) (HPC)): 152 % of control

COc1c(OCC(O)CN2CCOCC2)c2c(C)coc2c2ccoc12 (stereo unspecified)
T/C [5]: 100 % of control | T/C [6]: 105 % of control

CCOC(=O)c1cn2ccccc2c1C(=O)OCC
T/C [7]: 108 % of control | T/C [8]: 99 % of control | T/C [9]: 92 % of control

O=C1CC(c2ccccc2)NN1 (stereo unspecified)
T/C (dose: 50.0 mg/kg/injection, schedule: Q01DX009 (ip), vehicle: saline): 103 % of control | T/C (dose: 100.0 mg/kg/injection, schedule: Q01DX009 (ip), vehicle: saline): 97 % of control

CN1c2ccccc2S(=O)(=O)n2nnnc21
T/C (dose: 100.0 mg/kg/injection, schedule: Q01DX001 (ip), vehicle: saline with Tween-80): 101 % of control | T/C (dose: 200.0 mg/kg/injection, schedule: Q01DX001 (ip), vehicle: saline with Tween-80): 101 % of control | T/C (dose: 400.0 mg/kg/injection, schedule: Q01DX001 (ip), vehicle: saline with Tween-80): 97 % of control

Cc1ccc(C2SCC(=O)N2c2nncs2)s1 (stereo unspecified)
T/C [2]: 100 % of control | T/C [3]: 92 % of control | T/C [4]: 94 % of control

O=C1Nc2ccccc2/C1=N\N=c1/scc(-c2ccccc2)n1-c1ccccc1
T/C [7]: 101 % of control and 89 % of control | T/C [8]: 100 % of control | T/C [9]: 101 % of control and 97 % of control

C[CH2][Sn]([CH2]C)([S]CCS(=O)(=O)O)[S]CCS(=O)(=O)O (tested in a mixture with another compound)
T/C (dose: 7.5 mg/kg/injection, schedule: Q01DX005 (ip), vehicle: saline): 123 % of control

CSCc1ccc(C(N)C(=O)O)cc1 (stereo unspecified)
T/C (dose: 50.0 mg/kg/injection, schedule: Q04DX002 (ip), vehicle: saline with Tween-80): 99 % of control | T/C (dose: 100.0 mg/kg/injection, schedule: Q04DX002 (ip), vehicle: saline with Tween-80): 96 % of control | T/C (dose: 200.0 mg/kg/injection, schedule: Q04DX002 (ip), vehicle: saline with Tween-80): 99 % of control

O=c1cc(O)cc[nH]1
T/C (dose: 400.0 mg/kg/injection, schedule: Q01DX009 (ip), vehicle: saline): 100 % of control and 96 % of control | T/C (dose: 600.0 mg/kg/injection, schedule: Q01DX009 (ip), vehicle: saline): 101 % of control and 106 % of control

OCC(O)C[S][Bi]([c]1ccccc1)[c]1ccccc1 (stereo unspecified)
T/C [5]: 116 % of control | T/C [6]: 100 % of control

O=C(CCl)c1ccc([N+](=O)[O-])cc1
T/C (dose: 1.56 mg/kg/injection, schedule: Q01DX005 (ip), vehicle: Klucel (hydroxypropylcellulose) (HPC)): 100 % of control | T/C (dose: 3.12 mg/kg/injection, schedule: Q01DX005 (ip), vehicle: Klucel (hydroxypropylcellulose) (HPC)): 100 % of control | T/C (dose: 6.25 mg/kg/injection, schedule: Q01DX005 (ip), vehicle: Klucel (hydroxypropylcellulose) (HPC)): 108 % of control | T/C (dose: 12.5 mg/kg/injection, schedule: Q01DX005 (ip), vehicle: Klucel (hydroxypropylcellulose) (HPC)): 89 % of control and 98 % of control | T/C [1]: 116 % of control
